Where “and” joins values, the source holds several entries; their conditions need not be identical. Equal entries are not always repeated.
How the values were obtained:
[1] = test system: subjects with PPR; assay: Study 1 and Study 2: once-daily ivermectin 1% cream vs vehicle in moderate to severe PPR (Example 3); assay type: in vivo, human
Description: Both studies were conducted in accordance with the ethical principles of the Declaration of Helsinki and Good Clinical Practices, and in compliance with local regulatory requirements.
Each study had three parts. In the first part of the study, subjects with PPR were treated with ivermectin 1% cream (IVM 1%) or vehicle once daily at bedtime for 12 weeks. In the second part of the study, subjects initially treated with IVM 1% once daily at bedtime continued the same treatment, while subjects treated with the vehicle once daily switched to topical treatment with azelaic acid 15% gel twice daily, in the morning and evening. The third part of the study consisted of 4 weeks safety follow-up, without treatment.
Eligible subjects were 18 years or older, with moderate or severe papulopustular rosacea as noted by an IGA of 3 (“several small or large papules/pustules, moderate erythema”) or 4 (“numerous small and/or large papules/pustules, severe erythema”), and presenting with 15-70 facial inflammatory lesions (papules and pustules). […]
Efficacy assessments at each visit were the IGA of disease severity, and inflammatory lesion counts (papules and pustules) on each of the five facial regions (forehead, chin, nose, right cheek, left cheek). Safety assessments included adverse events (AEs) throughout the study, local tolerance parameters (stinging/burning, dryness, itching) at each study visit evaluated on a 4-point scale [from 0 (none) to 3 (severe)], and laboratory parameters (hematology and biochemistry) measured before and after treatment. […]
The co-primary efficacy endpoints in both studies were the success rate based on the IGA outcome and absolute change from baseline in inflammatory lesion counts at the end of week 12 of the studies. The success rate based on IGA score [% of subjects who achieved “clear” or “almost clear” ratings on the IGA scale at week 12 (ITT-LOCF)] was analyzed by the Cochran-Mantel-Haenszel (CMH) test stratified by analysis site, using the general association statistic. […]

[2] = Plasma pharmacokinetic study of ivermectin 1% cream in subjects with severe PPR (Example 5); assay type: in vivo, human
Description: A multi-center, open-label, single treatment study was conducted to assess the pharmacokinetic (PK) profile of ivermectin 1% (w/w) cream in subjects with severe PPR. A maximized dose of about 2 mg/cm^2 (1 g of ivermectin 1% (w/w) cream, equivalent to 10 mg ivermectin per application) was applied to the face once daily for 4 weeks. The treatment was followed by a 28-Day follow-up period.
A total of seventeen subjects received at least one dose of treatment. All subjects provided PK parameters at some time points, but fifteen (9 females and 6 males) provided full PK profiles at Days 0, 14 and 28.
Blood samples for determination of ivermectin levels in plasma were taken from all subjects before application on Days 0, 7, 14, 21 and 28 (pre-dose samples corresponding to Cmin). Additional blood samples were taken on Days 0, 14 and 28 at 1, 3, 6, 9 and 12 hours after application. At, the end of the 28-Day treatment, blood samples were taken on Days 29, 30, 32, 35, 38, 42, 49 and 56 during the follow-up period. The plasma was isolated and frozen (−20° C.) pending analysis.
The pharmacokinetic analysis was performed. From the individual plasma concentrations, the pharmacokinetic parameters were determined by non-compartmental method Kinetica™ sofware, version 4.3, InnaPhase Corporation, Philadelphia, USA).
AUC0-24 H was calculated by the mixed linear-logarithmic trapezoidal method at Day 0, 14 and 28. BLQ was imputed as zero in the individual PK profile.
During the follow up period, the following parameters were measured: • (1) AUC0-t: Area under the concentration-time curve calculated by the mixed linear-logarithmic trapezoidal method from T0 up to the sampling time corresponding to the last quantifiable concentration (Clast); • (2) Kel: The elimination rate constant value (kel) was obtained by linear regression of log-linear terminal phase of concentration-time profile using at least 3 data points, excluding Cmax, otherwise kel was not determined. The acceptability criteria for determination of kel was a coefficient of regression more or equal to 0.98. When kel was not determined, AUC0-inf and t½ were not reported; • (3) t½: The terminal half-life value (t½) was calculated using the equation ln2/kel; • (4) AUC0-inf: Area under the plasma concentration-time curve calculated by the mixed linear-logarithmic trapezoidal method from T0 and extrapolated to time infinity as: AUC0-inf=AUC0-t+Clast/kel.
When the extrapolation represented more than 20%, AUC0-inf and t1/2 […]. Mean values, standard deviation (SD), lowest individual value (Min), maximal individual value (Max) and coefficient of variation (CV) were calculated and reported on each variables (Arithmetic mean for AUC, Cmax, Tmax and harmonic mean for t1/2). Conversely to the protocol, the standard error of mean (SEM) were not calculated and not reported. In addition a statistical analysis was performed on ivermectin specific parameters (including the accumulation ratios).

[3] = orally administered; cited from earlier work

ivermectin
plasma accumulation of ivermectin ([1]; 52-week treatment period (Phase 3 study)): no plasma accumulation | median reduction from baseline in inflammatory lesion counts ([1]; Study 1, week 2): about 30% | median reduction from baseline in inflammatory lesion counts ([1]; Study 2, week 2): 27.3% | AUC0-24 H, Min-Max ([2]; Day 0): [3.16-21.28] ng · h/mL | AUC0-24 H, mean ± SD ([2]; Day 0): 0.00929 ± 0.0054 µg·h/mL | Pre-dose/Cmin, Min-Max ([2]; Day 0): [0.17-0.86] ng/mL | Tmax, Min-Max ([2]; Day 0): [1-24] h | Pre-dose/Cmin, mean ± SD ([2]; Day 0 (24 hours after D0), plasma, 1 g ivermectin 1% cream on the face once daily): 0.37 ng/mL and 0.37 ± 0.21^(a) ng/mL | Cmax, mean ± SD ([2]; Day 0 (single topical application)): 0.69 ng/mL | Pre-dose/Cmin, Min-Max ([2]; Day 7): [0.56-3.26] ng/mL | Pre-dose/Cmin, mean ± SD ([2]; Day 7, plasma, ivermectin 1% cream once daily): 1.17 ± 0.88 ng/mL | Pre-dose/Cmin, Min-Max ([2]; Day 14): [0.58-2.34] ng/mL | Tmax, Min-Max ([2]; Day 14): [0-24] h | AUC0-24 H, mean ± SD ([2]; Day 14 (steady state)): 0.03614 ± 0.01556 µg·h/mL | Cmax, mean ± SD ([2]; Day 14 (steady state)): 2.10 ± 1.04 ng/mL | Tmax, mean ± SD ([2]; Day 14 (steady state)): 10 ± 8 h | Pre-dose/Cmin, mean ± SD ([2]; Day 14, plasma, ivermectin 1% cream once daily): 1.26±0.53 ng/mL and 1.26 ± 0.53^(c) ng/mL | Pre-dose/Cmin, Min-Max ([2]; Day 21): [0.66-3.25] ng/mL | Pre-dose/Cmin, mean ± SD ([2]; Day 21, plasma, ivermectin 1% cream once daily): 1.36±0.66 ng/mL and 1.36 ± 0.66^(c) ng/mL | AUC0-24 H, mean ± SD ([2]; Day 28): 0.03543 ± 0.01442 µg·h/mL | Cmax, Min-Max ([2]; Day 28): [0.58-3.36] ng/mL | Cmax, mean ± SD ([2]; Day 28): 1.74 ± 0.77 ng/mL | Pre-dose/Cmin, Min-Max ([2]; Day 28): [0.53-3.00] ng/mL | Tmax, Min-Max ([2]; Day 28): [3-24] h | Tmax, mean ± SD ([2]; Day 28): 11 ± 4 h | total systemic exposure (AUC0-inf) ([2]; Day 28): 0.312 ± 0.173 µg·h/mL | Pre-dose/Cmin, mean ± SD ([2]; Day 28, plasma, ivermectin 1% cream once daily): 1.36 ± 0.63 ng/mL | time of last quantifiable concentration after application ([2]; after Day 28): approximately 24 days | apparent terminal half-life, range ([2]; after the last topical application (Day 28), 14 subjects): 92 to 238 h | relative bioavailability vs oral administration of ivermectin ([2]; steady state, topical): 16% | t1/2, typical [3]: around 18 hours
